Where no end group is shown, it is not given here.
What was measured:
[1] = tested on: activated platelets; assay: Platelet localization and binding (confocal microscopy, flow cytometry); type: cell-based, bovine; conditions: 15 minutes incubation
Procedure: Bovine platelets were acquired from bovine PRP by centrifugation (800 rcf, 15 minutes), labelled with DiI (5 μg/mL), washed, and resuspended in PBS. At the time of treatment, platelets were further centrifuged (800 rcf, 15 minutes) to replace PBS supernatant with treatment solutions. Treatments of AMCA/FITC HMG, FITC-MAD1, or AMCA-heparin were prepared in PBS at equivalent concentrations, incubated with platelet samples for 15 minutes and then transferred to 4-well chambered slide (500 μL) before imaging using an Olympus FluoView 1000 confocal microscope (Tokyo, Japan).
MAD1-platelet binding was analyzed via flow cytometry by resuspending platelets in PBS containing 1 mg/mL FITC-MAD1. Blank PBS was used as an untreated control. After a 15-minute incubation, treated platelets were centrifuged (800 rcf, 15 minutes) and resuspended in PBS before analysis using a Guava Flow Cytometer (Millipore Sigma; Burlington, MA). Data was analyzed by FlowJo software.

[2] = tested on: bovine platelet rich plasma (PRP); conditions: equivalent heparin concentration of 2 μg/mL, FIG. 3b
Procedure: Here, bovine PRP was acquired from the top clear layer after centrifuging citrated bovine whole blood at 600 rcf for 30 minutes (4° C.) with minimum acceleration/break ramps. […] Clot formation was initiated by combining 450 μL bovine PRP, 50 μL HMG treatment solution, and 50 μL 0.1M CaCl2) in a 24-well plate. DI water was included as a negative control. Samples were mixed on an oscillating rocker plate and clotting time determined as the time required for observable aggregate formation upon recalcification.

[3] = tested on: whole blood coagulation; assay: In vivo anticoagulation: blood clotting time (INTEM, ROTEM); design: species or system C57BL/6J mice
Procedure: (§1) Murine studies were performed under IACUC protocol 202102036. HMG particles were prepared using rhodamine-heparin doped 20 vol % into unlabeled heparin before electrospray synthesis. Dialyzed HMG particles were concentrated by Centri Vap DNA Concentrator to achieve 0.5 mg/mL equivalent heparin. Sterile 10×PBS was diluted ten-fold into samples before injection of a 200 μL volume into C57BL/6J mice. Two groups (n=4) received free heparin given via tail vein injection or injected subcutaneously in the neck scruff. A third group (n=4) received HMG sample as a subcutaneous depot in the neck scruff. All mice received a final heparin dose of 10 IU. At each time point, mice were sacrificed, and blood samples collected into citrate tubes via cardiac puncture. Coagulation time was determined on whole blood samples via INTEM analysis on a ROTEM delta coagulation analyzer (Werfen; Bedford, MA). Clotting times were chosen to evaluate the efficacy of each treatment's ability to inhibit thrombin-linked platelet activation and initial fibrin polymerization/recruitment. INTEM coagulation analysis was selected based on its established sensitivity for the presence of heparin. For a typical experiment, serum is isolated via centrifugation (1000 rcf, 10 minutes) and fluorescence measurements taken (λex=560 nm, λem=590 nm). Kidney, liver, and spleen tissues were also collected and homogenized before centrifugation at 10,000 rcf for 20 minutes to remove bulk fibrous structures. 100 μL of the remaining supernatant was evaluated for heparin presence via fluorescence measurements (λex=560 nm, λem=590 nm) using a BioTek Cytation 3 Plate Reader.

[4] = Tissue biodistribution of heparin (liver, kidney, spleen fluorescence); type: in vivo, C57BL/6J mice; conditions: kidneys
Procedure: as §1, with “INTEM coagulation analysis was selected based on its established sensitivity for the presence of heparin.” left out, “Kidney, liver, and spleen tissues were also collected and homogenized before centrifugation at 10,000 rcf for 20 minutes to remove bulk fibrous structures.” left out

[5] = clinical background; cited from earlier work
[6] = In vivo heparin serum/plasma concentration over time; design: species or system C57BL/6J mice; conditions: for time of highest heparin serum concentration: first sampling timepoint; for time to complete clearance from serum: post administration; for heparin serum half-life (t1/2): single dose 10 IU heparin
Procedure: as §1

Substance	binding to activated platelets [1]	clotting time of blood treated with peptide alone [2]	blood clotting time ([3]; intravenous, 0.5 hour time point) [min]	time to return to basal clotting activity ([3]; intravenous, post administration, basal 3.5 minutes)	change in clotting behavior ([3]; subcutaneous, 0.5-24 hours)	tissue biodistribution / clearance route of heparin ([4]; intravenous)	tissue biodistribution / clearance route of heparin ([4]; subcutaneous)	plasma half-life (t1/2) [5] [h]	time of highest heparin serum concentration ([6]; intravenous) [min]	time to complete clearance from serum ([6]; intravenous) [h]	heparin serum half-life (t1/2) ([6]; intravenous) [h]	time of transient spike in heparin serum concentration after dosing ([6]; subcutaneous) [h]	time of highest heparin serum concentration ([6]; subcutaneous) [min]	time to complete clearance from serum ([6]; subcutaneous) [h]	heparin serum half-life (t1/2) ([6]; subcutaneous) [h]
KRWHWWRRHWVVW-NH2 [MAD1]	high avidity	significant increase in clotting time													
heparin			35.5	approximately 2 hours	negligible changes in clotting behavior for all time points except 6 hours	initially excreted through the renal system, with additional hepatic clearance observed at ˜6 hours	early liver uptake that later shifted to renal clearance	~1	30	~6	1.3	4 to 6	30	~6	1.4
